Legend:
Format in all cases: in vivo
[1] = tested on: barnyardgrass (Echinochloa crus-galli); experiment: Test A pre-/postemergence: barnyardgrass
Method in brief: (§1)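 Injury is scored visually on a scale where 0 means no effect and 100 complete control, comparing treated with untreated plants after approximately ten greenhouse days. Both preemergence and postemergence applications are made at the same time.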

[2] = tested on: pigweed (Amaranthus retroflexus); experiment: Test A pre-/postemergence: pigweed
Method in brief: as §1

corn (Zea mays) = experiment: Test A pre-/postemergence: corn
Method in brief: as §1

[3] = tested on: morningglory (Ipomoea spp.); experiment: Test A pre-/postemergence: morningglory
Method in brief: as §1

[4] = tested on: velvetleaf (Abutilon theophrasti); experiment: Test A pre-/postemergence: velvetleaf
Method in brief: as §1

[5] = tested on: sedge, umbrella (small-flower umbrella sedge Cyperus difformis); experiment: Test B flooded paddy: sedge, umbrella; conditions: Flood, applied to paddy water at 2-leaf stage, visually evaluated after 13 to 15 days
Method in brief: (§2)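 Greenhouse assay lasting 13 to 15 days. Treatment was into water flooding pots 3 cm deep, at the 2-leaf stage, with that level sustained afterwards. Scores compare treated with control plants visually, 100 denoting complete control and 0 no effect; a dash marks no test result.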

[6] = tested on: crabgrass, large (large crabgrass, Digitaria sanguinalis); experiment: Test A pre-/postemergence: crabgrass, large
Method in brief: as §1

[7] = tested on: foxtail, giant (giant foxtail, Setaria faberii); experiment: Test A pre-/postemergence: foxtail, giant
Method in brief: as §1

[8] = tested on: barnyardgrass (Echinochloa crus-galli); experiment: Test B flooded paddy: barnyardgrass; conditions: Flood, applied to paddy water at 2-leaf stage, visually evaluated after 13 to 15 days
Method in brief: as §2

[9] = tested on: wheat (Triticum aestivum); experiment: Test A pre-/postemergence: wheat
Method in brief: as §1

rice (Oryza sativa) = experiment: Test B flooded paddy: rice; conditions: Flood, applied to paddy water at 2-leaf stage, visually evaluated after 13 to 15 days
Method in brief: as §2

[10] = tested on: ducksalad (Heteranthera limosa); experiment: Test B flooded paddy: ducksalad; conditions: Flood, applied to paddy water at 2-leaf stage, visually evaluated after 13 to 15 days
Method in brief: as §2

[11] = Postemergence, 125 g ai/ha, 0 to 100 scale, 0 is no effect, 100 is complete control
[12] = Postemergence, 500 g ai/ha, visual rating on 0 to 100 scale (0 no effect, 100 complete control), approximately ten days
[13] = Preemergence, 125 g ai/ha, 0 to 100 scale where 0 is no effect and 100 is complete control
[14] = Preemergence, 500 g ai/ha, 0 to 100 scale (0 no effect, 100 complete control)
[15] = Postemergence, 500 g ai/ha, 0 to 100 scale, 0 is no effect, 100 is complete control

| Compound | Plant response rating, Barnyardgrass [1, 13] | Plant response rating, Barnyardgrass [1, 14] | Plant response rating, Pigweed [2, 11] | Plant response rating, Pigweed [2, 13] | Plant response rating, Pigweed [2, 14] | Plant response rating, Corn (corn (Zea mays); [13]) | Plant response rating, Corn (corn (Zea mays); [14]) | Plant response rating, Morningglory [3, 11] | Plant response rating, Morningglory [3, 13] | Plant response rating, Morningglory [3, 14] | Plant response rating, Velvetleaf [4, 11] | Plant response rating, Velvetleaf [4, 13] | Plant response rating, Velvetleaf [4, 14] | Plant response rating, Crabgrass, Large [6, 13] | Plant response rating, Crabgrass, Large [6, 14] | Plant response rating, Foxtail, Giant [7, 13] | Plant response rating, Foxtail, Giant [7, 14] | Plant response rating, Wheat [9, 11] | Plant response rating, Wheat [9, 13] | Plant response rating, Wheat [9, 14] | other results |
| --- | --- | --- | --- | --- | --- | --- | --- | --- | --- | --- | --- | --- | --- | --- | --- | --- | --- | --- | --- | --- | --- |
| CCc1nn(-c2cccc(C(F)(F)F)c2)nc1Cc1cccc(C(F)(F)F)c1 [Compound 143] | 30 | 90 | 100 | 100 | 100 | 0 | 20 | 50 | 0 | 0 | 40 | 0 | 20 | 90 | 100 | 90 | 100 | 10 | 0 | 10 | Barnyardgrass plant response rating [1, 11]: 20; Barnyardgrass plant response rating [1, 12]: 50; Pigweed plant response rating [2, 12]: 100; Corn plant response rating (corn (Zea mays); [11]): 40; Corn plant response rating (corn (Zea mays); [12]): 50; Morningglory plant response rating [3, 12]: 90; Velvetleaf plant response rating [4, 12]: 80; Plant response rating, Sedge, Umbrella (0 to 100 scale, 0 is no effect, 100 is complete control) ([5]; 250 g ai/ha): 75; Crabgrass, Large plant response rating [6, 11]: 80; Crabgrass, Large plant response rating [6, 12]: 100; Foxtail, Giant plant response rating [7, 11]: 80; Foxtail, Giant plant response rating [7, 12]: 100; Plant response rating, Barnyardgrass (0 to 100 scale, 0 is no effect, 100 is complete control) ([8]; 250 g ai/ha): 40; Wheat plant response rating [9, 12]: 40; Plant response rating, Rice (0 to 100 scale, 0 is no effect, 100 is complete control) (rice (Oryza sativa); 250 g ai/ha): 30; Plant response rating, Ducksalad (0 to 100 scale, 0 is no effect, 100 is complete control) ([10]; 250 g ai/ha): 0 |
| CCCc1nn(-c2ccc(F)cc2)nc1Cc1cccc(C(F)(F)F)c1 [Compound 149] | 60 | 90 | 100 | 90 | 100 | 10 | 20 | 90 | 10 | 30 | 60 | 20 | 50 | 90 | 100 | 90 | 100 | 20 | 0 | 50 | Plant response rating, Barnyardgrass [1, 11]: 30; Barnyardgrass plant response rating [1, 12]: 80; Pigweed plant response rating [2, 12]: 100; Plant response rating, Corn (corn (Zea mays); [11]): 30; Corn plant response rating (corn (Zea mays); [12]): 40; Morningglory plant response rating [3, 12]: 100; Velvetleaf plant response rating [4, 12]: 100; Plant response rating, Sedge, Umbrella (0 to 100 scale, 0 is no effect, 100 is complete control) ([5]; 250 g ai/ha): 60; Plant response rating, Crabgrass, Large [6, 11]: 80; Crabgrass, Large plant response rating [6, 12]: 90; Plant response rating, Foxtail, Giant [7, 11]: 80; Foxtail, Giant plant response rating [7, 12]: 90; Plant response rating, Barnyardgrass (0 to 100 scale, 0 is no effect, 100 is complete control) ([8]; 250 g ai/ha): 40; Wheat plant response rating [9, 12]: 30; Plant response rating, Rice (0 to 100 scale, 0 is no effect, 100 is complete control) (rice (Oryza sativa); 250 g ai/ha): 30; Plant response rating, Ducksalad (0 to 100 scale, 0 is no effect, 100 is complete control) ([10]; 250 g ai/ha): 60 |
| CC(C)Cc1nn(-c2ccc(C(F)(F)F)cc2)nc1Oc1ccnc(C(F)(F)F)c1 [Compound 186] | 0 | 0 | 20 | 0 | 0 | 0 | 0 | 0 | 0 | 0 | 0 | 0 | 0 | 0 | 0 | 0 | 0 | 0 | 0 | 0 | Plant response rating, Barnyardgrass [1, 11]: 0; Barnyardgrass plant response rating [1, 15]: 0; Pigweed plant response rating [2, 15]: 60; Plant response rating, Corn (corn (Zea mays); [11]): 10; Corn plant response rating (corn (Zea mays); [15]): 20; Morningglory plant response rating [3, 15]: 10; Velvetleaf plant response rating [4, 15]: 20; Plant response rating, Sedge, Umbrella (0 to 100 scale, 0 is no effect, 100 is complete control) ([5]; 125 g ai/ha): 0; Plant response rating, Crabgrass, Large [6, 11]: 0; Crabgrass, Large plant response rating [6, 15]: 0; Plant response rating, Foxtail, Giant [7, 11]: 0; Foxtail, Giant plant response rating [7, 15]: 0; Plant response rating, Barnyardgrass (0 to 100 scale, 0 is no effect, 100 is complete control) ([8]; 125 g ai/ha): 0; Wheat plant response rating [9, 15]: 0; Plant response rating, Rice (0 to 100 scale, 0 is no effect, 100 is complete control) (rice (Oryza sativa); 125 g ai/ha): 0; Plant response rating, Ducksalad (0 to 100 scale, 0 is no effect, 100 is complete control) ([10]; 125 g ai/ha): 0 |
